{"source": "patent US11202821B2", "about": "“Glucose oxidase compositions” (VEGANUTRITECH LLP, priority 2016, dated 2021)", "key": {"[1]": {"experiment": "Glucose tolerance test on healthy volunteers", "assay_type": "in vivo, human", "from_the_text": "The data is as provided under table 21 and reflects that the sweetener compositions of the present invention are safer to use even for healthy individuals as compared to artificial sweeteners.\nObservations of glucose tolerance test on healthy volunteers were made after the consumption of the sweetener composition containing glucose oxidase enzyme, as per the embodiment of the present invention and in comparison, to known artificial sweetener product having artificial sweetener sucralose and bulking agent dextrose monohydrate."}, "[2]": {"experiment": "Calorific value by Bomb calorimeter", "assay_type": "physicochemical", "protocol": "Known sweetener compositions based on artificial sweeteners such as sucralose or Acesulfame K along with natural sugar substitute compositions including stevia, sugar, glucose and sucrose, were compared with the sweetener or the nutraceutical compositions containing glucose oxidase enzyme for their calorific values. The calorific values are determined using Bomb calorimeter."}, "[3]": {"experiment": "Effect on body weight and muscle mass in type 2 diabetic patients", "assay_type": "in vivo, human", "settings": "type 2 diabetic patient, dose 25 gms per day", "protocol": "Six type 2 diabetic patients were randomly administered the Glucose oxidase containing sweetener composition as per the embodiment of the present invention for […], 5 patients were administered sugar and compositions containing natural sugar substitute (stevia based) based sweeteners, or artificial sweeteners based on Sucralose or Acem or compositions containing dietary fibres with saccharides, dietary fibres with sugar alcohols and dietary fibres with sugar alcohols and saccharides, the details of which are as set forth in the Table below. One patient was not given any composition. Before the onset of the study (week 0) and after 2 months, weight measurements were taken."}, "[4]": {"system": "buccal epithelial cells", "experiment": "Non invasive micronucleus assay for oxidative stress in diabetic individuals", "assay_type": "in vivo, human", "settings": "dose 40 gms (0.005 gms for the drugs)", "from_the_text": "Known pharmaceutical/nutraceutical compositions as well as other artificial sweeteners were compared to the pharmaceutical composition including the glucose oxidase enzyme of the invention for controlling oxidative stress in diabetic individuals.\nMicronucleus is a small nucleus (also known as erratic or third nucleus), present in the cytoplasm of the cell. Formation of micronuclei indicates oxidative stress and genetic damage. The micronucleus assay using scraped buccal epithelial cells is an easy and non-invasive assay to estimate oxidative stress.\nThe results of the Non Invasive Micronucleus Assay, using buccal epithelial cells were tabulated as follows: […]"}}, "note": "Where “and” joins values, the source holds several entries; their conditions need not be identical. Equal entries are not always repeated.", "data": [{"smiles": "O.O=C[C@H](O)[C@@H](O)[C@H](O)[C@H](O)CO", "note": "[Dextrose monohydrate]", "values": [{"measurement": "Blood Sugar After 2 hrs", "setting": "[1]; 2 hrs after 75 gms in 200 ml of water, individual values, monohydrate", "result": "141 and 149 (3×) and 160 (3×) and 156 (2×) and 170 and 175 and 150 and 145 and 158 and 169 and 154 and 159 and 157 and 164 and 161"}, {"measurement": "Blood Sugar After 2 hrs, Average/20 respondents", "setting": "[1]; after 2 hrs, 75 gms in 200 ml of water, average of 20 respondents", "result": "dents- 157.1"}, {"measurement": "Blood Sugar Initial", "setting": "[1]; before drinking 75 gms in 200 ml of water, individual values, monohydrate", "result": "80 and 79 and 97 and 96 and 100 (2×) and 105 (2×) and 104 (2×) and 86 and 89 and 98 and 102 (2×) and 87 and 95 and 99 and 103 and 93"}, {"measurement": "Blood Sugar Initial, Average/20 respondents", "setting": "[1]; initial, average of 20 respondents", "result": "dents- 92.2"}]}, {"smiles": "OC[C@H]1O[C@H](O[C@]2(CCl)O[C@H](CCl)[C@@H](O)[C@@H]2O)[C@H](O)[C@@H](O)[C@H]1Cl", "note": "[Sucralose]", "values": [{"measurement": "Glycemic Response", "setting": "[1]; conclusion in words", "result": "respond almost in the same manner as that of Glucose"}]}, {"smiles": "OC[C@H]1OC(O)[C@H](O)[C@@H](O)[C@@H]1O", "note": "(stereo partly drawn) [Glucose]", "values": [{"measurement": "Calories/100 g", "setting": "[2]", "result": 400, "unit": "Calories/100 g"}]}, {"smiles": "OC[C@H]1O[C@@](CO)(O[C@H]2O[C@H](CO)[C@@H](O)[C@H](O)[C@H]2O)[C@@H](O)[C@@H]1O", "note": "[Sugar]", "values": [{"measurement": "Initial Body weight", "setting": "[3]; baseline (week 0)", "result": 60, "unit": "Kgs"}, {"measurement": "Body weight (after two months)", "setting": "[3]", "result": 62.5, "unit": "Kgs"}, {"measurement": "Muscle mass increase in % over three months", "setting": "[3]", "result": "No change"}, {"measurement": "Calories/100 g", "setting": "[2]", "result": 400, "unit": "Calories/100 g"}, {"measurement": "Oxidative stress Values (% of cells containing micronuclei) before administration", "setting": "[4]; baseline", "result": "5.0 % of cells containing micronuclei"}, {"measurement": "Oxidative stress Values (% of cells containing micronuclei) one month after administration", "setting": "[4]", "result": "7 % of cells containing micronuclei"}]}]}
